Laboratory results from patent US20040029906A1, “Inhibitors of dna polymerase sigma” (priority 2003, published 2004).
“Also recorded” adds a separate entry of the source. Read-outs that look alike come from different tables or passages of the source.

Tests used:
[1] = molecular target: T1, yeast polymerase σ (Trf4, pol sigma-I) (Saccharomyces cerevisiae, UniProt P53632); assay: in vitro primer extension assay (5'-32P dT16 primer / poly dA template) for polymerase σ inhibition; assay type: biochemical, yeast (S. cerevisiae); conditions: for inhibition of polymerase σ in primer extension assay (FIG. 3), in words: 10 μM test compound, 5 min, dTTP, Mg2+; for concentration level of yeast pol sigma inhibition, in words: yeast pol sigma in vitro
T1 construct: His6 (peptide tag containing six histidines); made in house; host or cells: E. coli
T1 sequence (P53632 1-584): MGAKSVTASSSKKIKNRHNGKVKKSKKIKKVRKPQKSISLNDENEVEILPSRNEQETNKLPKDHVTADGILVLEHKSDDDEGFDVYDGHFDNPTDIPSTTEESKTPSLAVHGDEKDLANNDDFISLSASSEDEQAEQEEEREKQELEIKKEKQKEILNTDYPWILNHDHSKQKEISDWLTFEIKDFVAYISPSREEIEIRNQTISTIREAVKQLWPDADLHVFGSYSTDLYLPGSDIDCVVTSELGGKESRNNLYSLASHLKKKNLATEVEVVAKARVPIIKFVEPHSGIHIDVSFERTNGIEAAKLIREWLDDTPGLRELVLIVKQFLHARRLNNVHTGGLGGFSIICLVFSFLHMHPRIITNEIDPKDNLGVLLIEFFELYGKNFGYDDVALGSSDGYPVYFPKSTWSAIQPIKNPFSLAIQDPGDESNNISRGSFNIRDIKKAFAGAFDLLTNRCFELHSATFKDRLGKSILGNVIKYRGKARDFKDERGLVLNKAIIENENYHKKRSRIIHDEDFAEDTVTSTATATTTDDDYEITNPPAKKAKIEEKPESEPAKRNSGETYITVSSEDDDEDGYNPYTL
Procedure: Due to the predicted structural similarity between pol sigma and pol β (Aravind and Koonin, 1999, Nucleic Acids Research 27: 1609-1618) several known β polmerase inhibitors were tested to determine if they would inhibit pol sigma in vitro. […] The template primer was incubated in the presence of dTTP, Mg^2+ and 10 μM test compound for 5 min. […] Lane 1 of FIG. 3 is a control with only the DMSO solvent added to the poly dA/ oligo dT assay, the remaining lanes represent reactions run in the presence of one of the β polmerase inhibitors.
The assay system that has been employed to date employs a dT16 primer annealed to a poly dA template (average length 282 nucleotides). Primer elongation as a consequence of the addition of T residues (in a distributive fashion) has been monitored by polyacrylamide gel electrophoresis. For purposes of screening for inhibitors a variant of the DNA polymerase β this system will be used as follows: […]

[2] = molecular target: human pol sigma (pol sigma-1) (Homo sapiens, UniProt Q5XG87); assay: inhibition of human pol sigma; assay type: biochemical
[3] = molecular target: rat polymerase β (Rattus norvegicus, UniProt P06766); assay type: biochemical
Procedure: To a 50 μL of 62.5 mM 2-amino-2-methyl-1,3-propanediol buffer, pH 8.6, containing 10 mM MgCl2, 1 mM DTT, 100 μg/mL BSA, 6.25 μM dNTPs including 0.04 Ci/mmol [^3H]dTTP, and 0.25 mg/mL activated calf thymus DNA was added 6 μL of a solution containing each test compound and 4 μL of recombinant rat liver DNA polymerase β preparation (6.9 units, 4.8×10^4 units/mg). After incubation at 37° C. for 60 min, the radiolabeled DNA product was collected on DEAE-cellulose paper (DE-81), dried, and rinsed successively with 0.4 M K2HPO4, pH 9.4, and 95% ethanol for radioactivity determination.

[4] = P388D1 cell viability, camptothecin and ursolic acid alone or together (Trypan Blue, hemacytometer); conditions: mouse, % viability, 6 hr incubation, 1 μM camptothecin, 0.5 μM ursolic acid
Excerpt: (§1) Viable cells were scored by the use of a hemacytometer plate after straining with Trypan Blue.

[5] = tested on: P388D1 cells; assay: as above; conditions: 6 hr incubation, 1 μM camptothecin, 0.5 μM ursolic acid
Excerpt: as §1

[6] = tested on: TRF4-deficient yeast (trf4 single mutants); assay: yeast spot growth assay, sensitivity to camptothecin; assay type: cell-based, S. cerevisiae (yeast)
Procedure: Spots represent serial 10-fold dilutions of saturated yeast cultures spotted onto Petri plates and incubated at 30° C. for 2 days in the presence of 10 ug/ml of camptothcin (FIG. 1A) or absence of drug (FIG. 1B).

Sequence of human pol sigma (pol sigma-1) (Q5XG87 whole entry): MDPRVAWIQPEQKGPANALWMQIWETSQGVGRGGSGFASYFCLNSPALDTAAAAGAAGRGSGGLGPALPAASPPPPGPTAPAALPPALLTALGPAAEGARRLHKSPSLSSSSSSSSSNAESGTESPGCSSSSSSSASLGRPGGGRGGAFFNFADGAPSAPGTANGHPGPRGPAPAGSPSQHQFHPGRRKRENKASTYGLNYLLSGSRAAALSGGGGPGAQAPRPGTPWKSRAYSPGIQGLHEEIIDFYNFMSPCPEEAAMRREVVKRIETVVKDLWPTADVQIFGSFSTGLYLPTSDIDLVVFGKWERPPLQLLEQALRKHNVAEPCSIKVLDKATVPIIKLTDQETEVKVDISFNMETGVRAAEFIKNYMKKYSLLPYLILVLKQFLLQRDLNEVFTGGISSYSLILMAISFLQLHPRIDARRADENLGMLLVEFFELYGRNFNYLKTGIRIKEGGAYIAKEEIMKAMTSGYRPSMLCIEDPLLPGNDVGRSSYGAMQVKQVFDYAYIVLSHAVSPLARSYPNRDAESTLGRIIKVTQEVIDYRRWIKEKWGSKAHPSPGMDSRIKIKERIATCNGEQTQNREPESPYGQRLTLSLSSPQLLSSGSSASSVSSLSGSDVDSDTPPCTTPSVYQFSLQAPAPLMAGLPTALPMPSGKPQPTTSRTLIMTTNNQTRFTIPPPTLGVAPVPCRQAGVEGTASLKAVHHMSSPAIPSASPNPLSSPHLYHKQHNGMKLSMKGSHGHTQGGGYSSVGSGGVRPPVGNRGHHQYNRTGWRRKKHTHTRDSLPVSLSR

Structure (SMILES) | IC50 [1] [nM] | pol sigma polymerase activity observed in presence of compound ([1]; 10 uM concentration) | inhibition of polymerase σ in primer extension assay (FIG. 3), in words [1] | concentration level of yeast pol sigma inhibition, in words [1] | inhibitory activity against human pol sigma, in words [2] | rank order of potencies for rat polymerase β ([3]; rat polymerase β) | viability at 6 h ([4]; P388D1 cells (suspension culture), Experiment 1, P388D1 cells) [%] | viability at 6 h ([4]; P388D1 cells (suspension culture), Experiment 2, P388D1 cells) [%] | toxicity to P388D1 cells, in words [5] | sensitivity of pol sigma-deficient yeast relative to wild-type strains, in words ([6]; 10 ug/ml, 30° C., 2 days, trf4::HIS3 and mcd1-1) | sensitivity of yeast cells lacking TRF4 to the agent relative to wild type ([6]; yeast cells lacking TRF4 (FIG. 1)) | concentration level of yeast pol sigma inhibition, in words ([1]; listed as Ursolic acid) | rank order of potencies for rat polymerase β [3] | viability at 6 h ([4]; Experiment 1, P388D1 cells) [%] | viability at 6 h ([4]; Experiment 2, P388D1 cells) [%]
C/C(=C\CC[C@@H](C)[C@@H]1CC[C@]2(C)C3=CC[C@H]4C(C)(C)[C@@H](O)CC[C@]4(C)[C@H]3CC[C@@]12C)C(=O)O [(24E)-3beta-hydroxy-7,24-euphandien-26-oic acid] | ~500 | no activity whatsoever | most potent of the species tested | nanomolar level inhibitor | inhibitory activity; also recorded: active, albeit only at micromolar concentrations; also recorded: also work to inhibit human pol sigma-1 | ursolic acid >betulinic acid >> 3β-hydroxy-7,24-euphandien-26-oic acid |  |  |  |  |  |  |  |  | 
CC[C@@]1(O)C(=O)OCc2c1cc1n(c2=O)Cc2cc3ccccc3nc2-1 [camptothecin] |  |  |  |  |  |  | 84 | 77 | minimal toxicity | hypersensitive | 10,000 fold |  |  |  | 
C[C@H]1[C@H](C)CC[C@]2(C(=O)O)CC[C@]3(C)C(=CC[C@@H]4[C@@]5(C)CC[C@H](O)C(C)(C)[C@@H]5CC[C@]43C)[C@H]12 [ursolic acid] |  |  | showing activity | micromolar concentrations | inhibitory activity |  |  |  | minimal toxicity |  |  | inhibits yeast polymerase σ | ursolic acid >betulinic acid >> 3β-hydroxy-7,24-euphandien-26-oic acid | 88 | 77
C=C(C)[C@@H]1CC[C@]2(C(=O)O)CC[C@]3(C)[C@H](CC[C@@H]4[C@@]5(C)CC[C@H](O)C(C)(C)[C@@H]5CC[C@]43C)[C@@H]12 [betulinic acid] |  |  | showing activity | micromolar concentrations |  |  |  |  |  |  |  |  | ursolic acid >betulinic acid >> 3β-hydroxy-7,24-euphandien-26-oic acid |  | 
